# How the values were obtained:
# Pseudomonas aeruginosa = experiment: Antibacterial activity against Pseudomonas aeruginosa assessed as reduction in bacterial growth; assay type: functional
# MDA-MB-231 [1] = experiment: Cytotoxicity against human MDA-MB-231 cells assessed as inhibition of cell growth at 0.5 mM relative to control; assay type: functional
# Staphylococcus aureus = experiment: Antibacterial activity against Staphylococcus aureus assessed as reduction in bacterial growth; assay type: functional
# Escherichia coli = experiment: Antibacterial activity against Escherichia coli assessed as reduction in bacterial growth; assay type: functional
# [2] = Cytotoxicity against MAEC cells assessed as inhibition of cell growth at 0.5 mM relative to control; assay type: toxicity, cell-based; conditions: mouse
# MDA-MB-231 [3] = experiment: Cytotoxicity against human MDA-MB-231 cells assessed as inhibition of cell viability; assay type: functional, cell-based
# [4] = Cytotoxicity against MAEC cells assessed as cell viability; assay type: toxicity, cell-based; conditions: mouse
MIC (Pseudomonas aeruginosa) [µM],MIC (Staphylococcus aureus) [µM],MIC (Escherichia coli) [µM],SMILES,inhibition at 500 µM (MDA-MB-231 [1]) [%],inhibition at 500 µM [2] [%],EC50 (MDA-MB-231 [3]) [µM],EC50 [4] [µM]
750,94,188,NS(=O)(=O)c1ccc(N/N=C2\C(=O)C3(CCCC3)CS2(=O)=O)cc1,81,1,,
750,750,750,O=C1/C(=C\NCc2ccccc2)S(=O)(=O)CC12CC2,90,17,270,
> 750,188,188,NS(=O)(=O)c1cccc(N/N=C2\C(=O)C3(CCCC3)CS2(=O)=O)c1,21,10,,
> 750,375,188,CC(C)(C)OC(=O)N1CCC2(CC1)CS(=O)(=O)/C(=N/Nc1cccc(S(N)(=O)=O)c1)C2=O,37,7,,
750,375,750,Nc1cccc(S(N)(=O)=O)c1,30,100,,93
> 750,23,188,CC1(C)CS(=O)(=O)/C(=N/Nc2cccc(S(N)(=O)=O)c2)C1=O,78,1,,
750,23,188,CC(C)(C)OC(=O)N1CC2(C1)CS(=O)(=O)/C(=N/Nc1ccc(S(N)(=O)=O)cc1)C2=O,21,20,,
750,> 750,> 750,Cc1ccc(N/N=C2\C(=O)C3(CCCC3)CS2(=O)=O)cc1,66,26,,
> 750,188,188,CC(C)(C)OC(=O)N1CC2(C1)CS(=O)(=O)/C(=N/Nc1cccc(S(N)(=O)=O)c1)C2=O,63,6,,
375,94,188,CC1(C)CS(=O)(=O)/C(=C/Nc2ccccc2)C1=O,7,7,,
375,188,188,CC1(C)CS(=O)(=O)/C(=N/Nc2ccc(S(N)(=O)=O)cc2)C1=O,51,3,,
> 750,188,94,NS(=O)(=O)c1ccc(N/N=C2\C(=O)C3(CC3)CS2(=O)=O)cc1,4,1,,
375,> 750,> 750,O=C1/C(=C\Nc2ccccc2)S(=O)(=O)CC12CC2,19,6,,
750,375,750,CCC1(C)CCS(=O)(=O)/C(=N/Nc2ccc(S(N)(=O)=O)cc2)C1=O (stereo not given),57,100,,78
> 750,375,750,CC(C)(C)OC(=O)N1CCC2(CC1)CS(=O)(=O)/C(=N/Nc1ccc(S(N)(=O)=O)cc1)C2=O,93,11,249,
750,94,750,CC1(C)CS(=O)(=O)/C(=C/NCc2ccccc2)C1=O,88,10,283,
750,750,375,Nc1ccc(S(N)(=O)=O)cc1 [SULFANILAMIDE],57,6,,

# — ChEMBL document CHEMBL6109065, “Synthesis, antibacterial and anticancer activity of azo-based and aminomethylene derivatives of cyclic β-keto sulfones” (Bioorg Med Chem Lett, 2025)
